Experiment [1] deals with T1, calmodulin-dependent cyclic AMP phosphodiesterase (Homo sapiens, UniProt P0DP23). Description: Inhibition of calmodulin-dependent cyclic AMP phosphodiesterase. It counts as biochemical. The note with it: unpublished data of the authors. From the text: (§1) Sary Pyroidno-4-iodotamoxifen (idoxifene) is a new non-steroidal antioestrogen currently undergoig phase I clnical evaluation. […] One agent that has featured in studies of both doxorubicin and cilatin resist- ance has been the extensively used antioestrogen tamoxifen. […] Tlhe purposes of this study were 3-fold. Initially, using a series of tamoxifen analogues of known inhibitory constants for calmodulin, the effect of increasing calmodulin inhibition on cytotoxicity against four human ovarian carcnoma cell lines was determined. […] Materials and mehod Drugs and chemicals The structures of tamoxifen and the various analogues of tamoxifen used are illustrated in Figure 1. […] Calmidazolium (R24571), Correspondence: L.R. Kelland, Drug Development Section, The Institute of Cancer Research, Block E, 15 Cotswold Road, Sutton, Surrey SM2 5NG, UK. […] Cytotoxicity data were then fitted to regression lines, and the concentration of each drug which produced a given level of cytotoxicity (fractional effect, Fa) alone or in combination was determined. Combination index (CI) for a given Fa was calculated as: CI = d' + td D-1 + D2 where DI and D2 are the doses of drugs 1 and 2, which by themselves produce a given Fa (i.e. IC5o); d' and d2 are the doses which produce the same Fa in combination. […]

Experiment [2] has as its system 41McisR6 cells. Description: SRB cytotoxicity assay, 41McisR6. The conditions noted are these: acquired cisplatin-resistant line versus parent. Format: cell-based, human. In general terms: The SRB assay estimates cell density from bound dye.
In experiment [3] the test system is CH1cisR6 cells. The note with it: acquired cisplatin-resistant line versus parent.
Experiment [4] deals with CH1 cells. The experiment in a line: DNA interstrand cross-link repair by alkaline elution, CH1. Format: cell-based, human.
Source text: as §1

For experiment [5], the system named is CH1cisR6 cells. Description: DNA interstrand cross-link repair by alkaline elution, CH1cisR6. It counts as cell-based, human.
Source text: as §1

For another experiment, the system named is 41M cells. The experiment in a line: SRB cytotoxicity assay, 41M. The conditions noted are these: Homo sapiens, read-out: 96 h IC50, doxorubicin cytotoxicity, 41M.
Source text: as §1

For another experiment, the system named is 41MdoxR cells. The experiment in a line: SRB cytotoxicity assay, 41MdoxR. The conditions noted are these: for Rf, resistance factor (IC50 resistant line/IC50 parent line), 41MdoxR/41M: doxorubicin resistance. From the text: (§2) Sary Pyroidno-4-iodotamoxifen (idoxifene) is a new non-steroidal antioestrogen currently undergoig phase I clnical evaluation. […] One agent that has featured in studies of both doxorubicin and cilatin resist- ance has been the extensively used antioestrogen tamoxifen. […] Tlhe purposes of this study were 3-fold. Initially, using a series of tamoxifen analogues of known inhibitory constants for calmodulin, the effect of increasing calmodulin inhibition on cytotoxicity against four human ovarian carcnoma cell lines was determined. […] Materials and mehod Drugs and chemicals The structures of tamoxifen and the various analogues of tamoxifen used are illustrated in Figure 1. […] Calmidazolium (R24571), Correspondence: L.R. Kelland, Drug Development Section, The Institute of Cancer Research, Block E, 15 Cotswold Road, Sutton, Surrey SM2 5NG, UK. […] Briefly, the analysis compares the effects of drug combinations to the effects of individual drugs across the entire dose-effect range. Cytotoxicity data were then fitted to regression lines, and the concentration of each drug which produced a given level of cytotoxicity (fractional effect, Fa) alone or in combination was determined. Combination index (CI) for a given Fa was calculated as: CI = d' + td D-1 + D2 where DI and D2 are the doses of drugs 1 and 2, which by themselves produce a given Fa (i.e. IC5o); d' and d2 are the doses which produce the same Fa in combination. CI= I indicates zero interaction (additive cytotoxicity), CI <I indicates synergy and CI> 1 indicates antagonism (Chou computer program, Biosoft). […] All cell lines were grown as monolayers in Dulbecco's modified Eagle medium (DMEM) supplemented with 10% heat-iactivated fetal calf serum (Imperial Laboratores, Andover, UK), 50 gml-' gentamic 2.5 jg ml-' ampho- tericin B, 2 mM L-glutmie 10 jag ml- insulin and 0.5 jgmml' hydrocorisone in a 10% carbon dioxide, 90% air atmosphere. […] Assssment of cytotoxicity Tamoxifen and the analogues of tamoxifen were dissolved immediately before use in absolute ethanol at 20 mM. […]

A further experiment concerns CH1doxR cells. Description: SRB cytotoxicity assay, CH1doxR. The conditions noted are these: for Rf, resistance factor (IC50 resistant line/IC50 parent line), CH1doxR/CH1: doxorubicin resistance.
Source text: as §2

Experiment [6] deals with CH1 cells. The experiment in a line: SRB cytotoxicity assay, CH1. The conditions noted are these: Homo sapiens, CH1, read-out: 96 h IC50, doxorubicin cytotoxicity, CH1.
Experiment [7] relates to four human ovarian carcinoma cell lines. Description: cells. The conditions noted are these: read-out: mean IC50 across four human ovarian carcinoma cell lines (cytotoxicity).
Source text: as §1

Experiment [8] concerns 41McisR6 cells. The experiment in a line: Intracellular platinum accumulation (flameless atomic absorption), 41McisR6. It counts as cell-based, human. The conditions noted are these: 2 h exposure to cisplatin alone or with 2 microM idoxifene.
Source text: as §1

The test system of experiment [9] is CH1cisR6 cells. Description: Intracellular platinum accumulation (flameless atomic absorption), CH1cisR6. It counts as cell-based, human. The note with it: 2 h exposure to cisplatin alone or with 2 microM idoxifene.
Source text: as §1

Experiment [10] relates to human ovarian carcinoma cell lines. Description: Highest non-toxic concentration of the resistance modifiers, preliminary experiments. Format: cell-based. The conditions noted are these: <10% cell kill in any one cell line; continuous drug exposure.
Source text: as §1

For experiment [11], the target named is T1, calmodulin-dependent cyclic AMP phosphodiesterase. On the set-up: method as in Rowlands et al., 1990. The conditions noted are these: values taken from previous determinations; ref Rowlands et al., 1990; read-out: calmodulin IC50 (inhibition of calmodulin-dependent cyclic AMP phosphodiesterase); cited from earlier work.
[12] abbreviates: after 2 h exposure to cisplatin 25 microM, removed at 2 h versus 5 h (so in the source).
[13] abbreviates: after 2 h cisplatin 25 microM, removal in presence of 2 microM idoxifene.

Where two headings read alike, the source gives them in different places.

For orientation: IC50 means the concentration at which inhibition is half-maximal.

With `CC/C(=C(/c1ccc(OCCN(C)C)cc1)c1cccc(O)c1)c1ccccc1` [3-hydroxytamoxifen], the IC50 in experiment [1] amounted to 13000 nM. Further, the “Rf, resistance factor (IC50 resistant line/IC50 parent line), 41McisR6/41M” value (“Rf, resistance factor … 41McisR6/41M” for short) in the experiment with 41McisR6 cells [2] was below 1. For the same compound, the “Rf, resistance factor (IC50 resistant line/IC50 parent line), CH1cisR6/CH1” value (shortened to “Rf, resistance factor … CH1cisR6/CH1”) with CH1cisR6 cells [3] is reported as below 1.
For `CC/C(=C(/c1ccc(I)cc1)c1ccc(OCCN(C)C)cc1)c1ccccc1` [4-iodotamoxifen], in the experiment with 41McisR6 cells [2], the “Rf, resistance factor … 41McisR6/41M” value is given as below 1. The “Rf, resistance factor … CH1cisR6/CH1” value with CH1cisR6 cells [3] is given as below 1.
With `Clc1ccc(C(c2ccc(Cl)cc2)n2cc[n+](CC(OCc3ccc(Cl)cc3Cl)c3ccc(Cl)cc3Cl)c2)cc1` (stereo not drawn) [calmidazolium], the “Rf, resistance factor … 41McisR6/41M” value with 41McisR6 cells [2] was below 1. In addition, the “Rf, resistance factor … CH1cisR6/CH1” value in the experiment with CH1cisR6 cells [3] was below 1.
Take `N.N.[Cl][Pt][Cl]` [cisplatin, cis-diamminedichloroplatinum (II)]: the “removal of cross-links, CH1” value in the experiment on CH1 cells [4] (setting [12]) turned out to be 15%. The “removal of cross-links, CH1cisR6” value in the experiment with CH1cisR6 cells [5] (setting [12]) is 90%.
Turning to `COc1cccc2c1C(=O)c1c(O)c3c(c(O)c1C2=O)C[C@@](O)(C(=O)CO)C[C@@H]3O[C@H]1C[C@H](N)[C@H](O)[C@H](C)O1` [doxorubicin], the IC50 in the experiment on 41M cells came to 39 nM; with 41MdoxR cells (Homo sapiens, read-out: 96 h IC50, doxorubicin cytotoxicity, 41MdoxR), 280 nM; in the experiment with CH1doxR cells (Homo sapiens, read-out: 96 h IC50, doxorubicin cytotoxicity, CH1doxR) it was 460 nM; in the experiment with CH1 cells [6], 5.3 nM. Besides, the figures for the “Rf, resistance factor (IC50 resistant line/IC50 parent line), 41MdoxR/41M” value in the experiment on 41MdoxR cells and in the experiment on 41MdoxR cells (listed as Doxorubicin) were “approximately 7” and 7.2, respectively. Moreover, the results for the “Rf, resistance factor (IC50 resistant line/IC50 parent line), CH1doxR/CH1” value with CH1doxR cells and with CH1doxR cells (listed as Doxorubicin) were around 90 and 87, respectively.
With `CC/C(=C(\c1ccc(I)cc1)c1ccc(OCCN2CCCC2)cc1)c1ccccc1` [idoxifene, Pyrrolidino-4-iodotamoxifen], the figures for the IC50 in experiment [7] and in experiment [11] were 4500 nM and 1400 nM, respectively. Moreover, in the experiment on 41McisR6 cells [2], the “Rf, resistance factor … 41McisR6/41M” value is below 1. In addition, the “effect on platinum accumulation, 41McisR6” value in the experiment on 41McisR6 cells [8] was “no significant difference”. The “effect on platinum uptake, CH1cisR6” value in the experiment on CH1cisR6 cells [9] is on record as “no difference in uptake”. In addition, in the experiment on CH1 cells [4] (setting [13]), the “effect on rate of DNA interstrand cross-link (ISC) removal, CH1” value is “did not markedly affect”. Further, in the experiment with CH1cisR6 cells [5] (setting [13]), the “effect on rate of DNA interstrand cross-link (ISC) removal, CH1cisR6” value was “did not markedly affect”. The highest non-toxic concentration in [10] worked out at 2 µM. For the same compound, the “Rf, resistance factor … CH1cisR6/CH1” value in the experiment on CH1cisR6 cells [3] is on record as below 1.
Take `CC/C(=C(\c1ccccc1)c1ccc(OCCN(C)C)cc1)c1ccccc1` [tamoxifen]: in [7], the concentration for half-maximal inhibition (IC50) was 6300 nM. Besides, the “Rf, resistance factor … 41McisR6/41M” value in the experiment with 41McisR6 cells [2] is on record as below 1. The highest non-toxic concentration in experiment [10] worked out at 4 µM. Further, the “Rf, resistance factor … CH1cisR6/CH1” value in the experiment on CH1cisR6 cells [3] was below 1.
